Values after ≈ are worked out from the molar mass of the structure shown.
What was measured:
Escherichia coli = assay: Antimicrobial activity against Escherichia coli BW25113 after 24 hrs by spectrophotometric method; type: functional; conditions: BW25113, 24 h
Pseudomonas aeruginosa = assay: Antimicrobial activity against Pseudomonas aeruginosa PAO1 after 24 hrs by spectrophotometric method; type: functional; conditions: PAO1, 24 h
Vibrio cholerae = assay: Antimicrobial activity against Vibrio cholerae 0395N1 after 24 hrs by spectrophotometric method; type: functional; conditions: 0395N1, 24 h
Bacillus subtilis = assay: Antimicrobial activity against Bacillus subtilis 1012 after 24 hrs by spectrophotometric method; type: functional; conditions: Bacillus subtilis, 1012, 24 h
Bacillus anthracis = assay: Antimicrobial activity against Bacillus anthracis delta sterne after 24 hrs by spectrophotometric method; type: functional
Bacillus cereus = assay: Antimicrobial activity against Bacillus cereus 10987 after 24 hrs by spectrophotometric method; type: functional; conditions: Bacillus cereus, 10987, 24 h
Staphylococcus aureus = assay: Antimicrobial activity against Staphylococcus aureus ATCC 33807 after 24 hrs by spectrophotometric method; type: functional; conditions: ATCC 33807, 24 h
Saccharomyces cerevisiae = assay: Antifungal activity against Saccharomyces cerevisiae INVSc1 after 24 hrs by spectrophotometric method; type: functional; conditions: INVSc1, 24 h
[1] = Aqueous solubility of compound; type: physicochemical; conditions: buffer
HepG2 [2] = assay: Cytotoxicity against human HepG2 cells assessed as cell viability after 24 hrs by MTS assay; type: cell-based; conditions: for Activity: human, hepg2, 24 h
HepG2 [3] = assay: (§1) Cytotoxicity against human HepG2 cells assessed as cell viability at 50 uM after 24 hrs by MTS assay; type: cell-based; conditions: hepg2, 24 h, 50 µM
[4] = Aqueous solubility of compound at 50 uM; type: physicochemical; conditions: buffer
[5] = Cytotoxicity against human HepG2 cells assessed as cell viability at 50 uM after 6 hrs by MTS assay; type: cell-based; conditions: read-out: Activity
[6] = as §1; type: cell-based; conditions: HepG2 cells, read-out: Activity

SMILES	MIC (Escherichia coli) [µM]	MIC (Pseudomonas aeruginosa) [µM]	MIC (Vibrio cholerae) [µM]	MIC (Bacillus subtilis) [µM]	MIC (Bacillus anthracis) [µM]	MIC (Bacillus cereus) [µM]	MIC (Staphylococcus aureus) [µM]	MIC (Saccharomyces cerevisiae) [µM]	solubility [1] [µM]	Activity (HepG2 [2])	Activity (HepG2 [3])	solubility [4]	viability at 6 h, 50 µM [5] [%]	viability at 24 h, 50 µM [6] [%]	IC50 (HepG2 [2]; Homo sapiens, HepG2, 24 h) [µM]
O=C1CC(c2ccc(Cl)c(F)c2)Oc2cc(O)cc(O)c21 (centres undefined)	250 (≈ 77.2 µg/mL)	250 (≈ 77.2 µg/mL)	125 (≈ 38.6 µg/mL)	125 (≈ 38.6 µg/mL)	62.5 (≈ 19.3 µg/mL)	93.8 (≈ 28.9 µg/mL)	125 (≈ 38.6 µg/mL)	250 (≈ 77.2 µg/mL)	500 (≈ 154 µg/mL)	Dose-dependent effect	Non-toxic	soluble	–	–	–
O=C1CC(c2ccc(F)cc2)Oc2cc(O)cc(O)c21 (centres undefined)	500 (≈ 137 µg/mL)	500 (≈ 137 µg/mL)	125 (≈ 34.3 µg/mL)	125 (≈ 34.3 µg/mL)	125 (≈ 34.3 µg/mL)	125 (≈ 34.3 µg/mL)	125 (≈ 34.3 µg/mL)	250 (≈ 68.6 µg/mL)	1000 (≈ 274 µg/mL)	Dose-dependent effect	Non-toxic	soluble	–	–	–
O=C1CC(c2ccc(F)c(F)c2)Oc2cc(O)cc(O)c21 (centres undefined)	1000 (≈ 292 µg/mL)	1000 (≈ 292 µg/mL)	125 (≈ 36.5 µg/mL)	125 (≈ 36.5 µg/mL)	62.5 (≈ 18.3 µg/mL)	125 (≈ 36.5 µg/mL)	125 (≈ 36.5 µg/mL)	1000 (≈ 292 µg/mL)	1000 (≈ 292 µg/mL)	Dose-dependent effect	Non-toxic	soluble	–	–	–
O=C1CC(c2ccc(Cl)c(Cl)c2)Oc2cc(O)cc(O)c21 (centres undefined)	125 (≈ 40.6 µg/mL)	125 (≈ 40.6 µg/mL)	125 (≈ 40.6 µg/mL)	62.5 (≈ 20.3 µg/mL)	31.2 (≈ 10.2 µg/mL)	31.2 (≈ 10.2 µg/mL)	62.5 (≈ 20.3 µg/mL)	31.2 (≈ 10.2 µg/mL)	63 (≈ 20.5 µg/mL)	Dose-dependent effect	–	soluble	17	57	–
O=C1CC(c2cc(F)c(F)c(F)c2)Oc2cc(O)cc(O)c21 (centres undefined)	1000 (≈ 310 µg/mL)	1000 (≈ 310 µg/mL)	1000 (≈ 310 µg/mL)	1000 (≈ 310 µg/mL)	1000 (≈ 310 µg/mL)	1000 (≈ 310 µg/mL)	1000 (≈ 310 µg/mL)	125 (≈ 38.8 µg/mL)	500 (≈ 155 µg/mL)	Dose-dependent effect	Non-toxic	soluble	–	–	95
O=C1CC(c2cc(O)c(O)c(O)c2)Oc2cc(O)cc(O)c21 (centres undefined)	1000 (≈ 304 µg/mL)	1000 (≈ 304 µg/mL)	1000 (≈ 304 µg/mL)	1000 (≈ 304 µg/mL)	1000 (≈ 304 µg/mL)	1000 (≈ 304 µg/mL)	1000 (≈ 304 µg/mL)	1000 (≈ 304 µg/mL)	63 (≈ 19.2 µg/mL)	Dose-dependent effect	Non-toxic	soluble	–	–	–

From ChEMBL document CHEMBL3808292, “Synthesis and biological evaluation of 5,7-dihydroxyflavanone derivatives as antimicrobial agents” (Bioorg Med Chem Lett, 2016)
